The values that follow are results of earlier work, collected in patent US20220016128A1, “METHODS, SYSTEM, AND KIT FOR MONITORING, DIAGNOSING, AND TREATING IMPULSIVE AGGRESSION” (Supernus Pharmaceuticals, Inc., priority 2016, published 2022).

Molecules are shown by their SMILES.

The conditions of data set [1]: oral dose.
For data set [2] the following is noted: acidic to slightly acidic media versus neutral to slightly alkaline pH (physiologic pH range of the gastro-intestinal tract).

On to `CCc1c(C)[nH]c2c1C(=O)C(CN1CCOCC1)CC2` (centres unmarked) [molindone, 3-Ethyl-6,7-dihydro-2-methyl-5-(morpholinomethyl)indol-4(5H)-one], for which the plasma elimination half-life entry in data set [1] was “about 2 hours”. For the same molecule, the solubility result in data set [2] is “greater solubility in acidic to slightly acidic media than in neutral to slightly alkaline pH values”.
